Laboratory results reported in US20250145606A1 (Arcus Biosciences, Inc., priority 2023, published 2025).
Read-outs that look alike come from different tables or passages of the source.

Tests used:
[1] = target: PDGFRβ (Homo sapiens (Human), UniProt P09619); experiment: Inhibition of PDGFRβ kinase activity (HTRF KinEASE-TK); conditions: biochemical, HTRF KinEASE-TK
Procedure, shortened: (§1)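 Recombinant kinases (2 nM CSF1R and c-Kit, 10 nM PDGFRα/β, 2× working) preincubated 1 h with compound in 50 mM HEPES pH 7.4, 5 mM MgCl2 (c-Kit) or 10 mM (others), 2 mM MnCl2; 2× ATP: c-Kit 16 μM, PDGFRα 1 μM, PDGFRβ 40 μM, CSF1R 20 μM. 120 min reaction at rt; TR-FRET 665/620 nm; IC50 by 4-parameter fit.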

[2] = target: FLT3 (Homo sapiens (Human), UniProt P36888); experiment: Inhibition of FLT3 kinase activity (HTRF KinEASE-TK); type: biochemical; conditions: biochemical, HTRF KinEASE-TK
Procedure, shortened: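 FLT3 tyrosine kinase activity was measured with the HTRF KinEASE-TK kit by following phosphorylation of a biotinylated TK peptide. After the 45 min reaction, 10 μL of detection mix was added: 0.2 μM (2×) Streptavidin-XL665 and 2 μM (2×) TK-Antibody-Cryptate in detection buffer. After 60 min, TR-FRET was read on an Envision as the 665 nm/620 nm emission ratio with 320 nm excitation.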

[3] = system: Phospho-KIT (Y703) in M07e cells; experiment: Phospho-KIT (Y703) cellular assay in M07e cells; type: cell-based; conditions: read-out: M07e Cell IC50
Procedure, shortened: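 Serum-starved M07e cells preincubated 50 min at 37° C with 11-point half-log compound titration, then stimulated 10 min with SCF at 90.9 ng/mL final. Fixed, permeabilized cells stained for phospho-KIT Y703 and read by flow cytometry (live-gated geometric mean); IC50 by 4-parameter fit normalized to DMSO and positive control.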

[4] = target: CSF1R (Homo sapiens (Human), UniProt P07333); experiment: Inhibition of CSF1R kinase activity (HTRF KinEASE-TK); conditions: biochemical, HTRF KinEASE-TK
Procedure, shortened: as §1

[5] = target: c-Kit (Homo sapiens (Human), UniProt P10721); experiment: Inhibition of c-Kit kinase activity (HTRF KinEASE-TK); type: biochemical; conditions: biochemical, HTRF KinEASE-TK
Procedure, shortened: as §1

[6] = target: PDGFRα (Homo sapiens (Human), UniProt P16234); experiment: Inhibition of PDGFRα kinase activity (HTRF KinEASE-TK); conditions: biochemical, HTRF KinEASE-TK
Procedure, shortened: as §1

[7] = M-07e, Phospho-KIT (Y703), M07e cells

Chain of PDGFRα (P16234 24-1089): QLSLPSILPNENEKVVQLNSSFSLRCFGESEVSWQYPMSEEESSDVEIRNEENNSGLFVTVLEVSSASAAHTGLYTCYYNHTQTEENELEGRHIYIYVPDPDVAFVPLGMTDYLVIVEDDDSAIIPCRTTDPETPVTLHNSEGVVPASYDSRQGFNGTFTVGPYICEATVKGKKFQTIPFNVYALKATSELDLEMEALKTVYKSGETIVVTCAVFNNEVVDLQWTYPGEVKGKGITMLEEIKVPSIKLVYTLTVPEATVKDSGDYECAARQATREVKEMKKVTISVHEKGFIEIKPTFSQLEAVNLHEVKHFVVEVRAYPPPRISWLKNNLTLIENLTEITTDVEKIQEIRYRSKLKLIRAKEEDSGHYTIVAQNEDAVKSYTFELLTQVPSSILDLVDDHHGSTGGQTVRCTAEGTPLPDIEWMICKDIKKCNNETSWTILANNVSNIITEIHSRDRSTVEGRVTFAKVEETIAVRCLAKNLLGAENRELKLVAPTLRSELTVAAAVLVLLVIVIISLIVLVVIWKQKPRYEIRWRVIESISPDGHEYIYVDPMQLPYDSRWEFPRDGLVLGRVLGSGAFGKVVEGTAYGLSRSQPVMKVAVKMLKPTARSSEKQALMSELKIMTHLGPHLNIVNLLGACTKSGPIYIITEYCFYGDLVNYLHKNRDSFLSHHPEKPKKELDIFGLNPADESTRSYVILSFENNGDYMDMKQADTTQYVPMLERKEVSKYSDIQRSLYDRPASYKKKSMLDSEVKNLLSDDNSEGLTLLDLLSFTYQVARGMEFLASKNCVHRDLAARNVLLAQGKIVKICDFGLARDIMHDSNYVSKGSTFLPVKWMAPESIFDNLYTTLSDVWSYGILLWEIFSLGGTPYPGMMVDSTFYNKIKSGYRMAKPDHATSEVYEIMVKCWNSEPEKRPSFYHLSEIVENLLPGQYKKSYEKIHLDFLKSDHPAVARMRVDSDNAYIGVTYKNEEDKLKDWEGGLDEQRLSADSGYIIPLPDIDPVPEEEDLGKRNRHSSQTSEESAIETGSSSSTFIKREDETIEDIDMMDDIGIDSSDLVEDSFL
Chain of CSF1R (P07333 20-972): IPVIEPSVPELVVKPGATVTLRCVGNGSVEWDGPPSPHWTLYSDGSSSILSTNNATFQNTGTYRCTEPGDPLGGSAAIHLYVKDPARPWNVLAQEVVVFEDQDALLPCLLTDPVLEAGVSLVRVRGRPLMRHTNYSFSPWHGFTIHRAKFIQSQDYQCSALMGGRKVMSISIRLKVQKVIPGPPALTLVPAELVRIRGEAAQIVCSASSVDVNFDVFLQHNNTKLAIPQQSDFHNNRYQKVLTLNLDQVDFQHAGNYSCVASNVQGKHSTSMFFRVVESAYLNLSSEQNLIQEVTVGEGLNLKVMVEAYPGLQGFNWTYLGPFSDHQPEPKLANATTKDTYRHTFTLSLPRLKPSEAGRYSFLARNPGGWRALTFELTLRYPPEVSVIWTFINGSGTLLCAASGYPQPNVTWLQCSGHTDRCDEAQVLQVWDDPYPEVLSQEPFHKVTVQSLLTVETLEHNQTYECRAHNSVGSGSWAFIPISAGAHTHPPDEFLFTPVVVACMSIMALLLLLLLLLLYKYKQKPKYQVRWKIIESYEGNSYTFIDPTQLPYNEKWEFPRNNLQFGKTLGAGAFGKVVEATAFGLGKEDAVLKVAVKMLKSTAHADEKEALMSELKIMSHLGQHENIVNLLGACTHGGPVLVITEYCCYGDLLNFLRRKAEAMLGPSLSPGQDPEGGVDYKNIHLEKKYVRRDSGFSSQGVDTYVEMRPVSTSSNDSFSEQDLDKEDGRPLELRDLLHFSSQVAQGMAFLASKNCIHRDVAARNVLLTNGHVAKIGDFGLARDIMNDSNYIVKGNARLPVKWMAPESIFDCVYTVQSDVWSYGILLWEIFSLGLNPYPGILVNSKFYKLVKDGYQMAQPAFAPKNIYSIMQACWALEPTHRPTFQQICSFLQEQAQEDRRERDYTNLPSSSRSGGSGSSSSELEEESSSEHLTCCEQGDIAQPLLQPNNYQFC
Chain of PDGFRβ (P09619 33-1106): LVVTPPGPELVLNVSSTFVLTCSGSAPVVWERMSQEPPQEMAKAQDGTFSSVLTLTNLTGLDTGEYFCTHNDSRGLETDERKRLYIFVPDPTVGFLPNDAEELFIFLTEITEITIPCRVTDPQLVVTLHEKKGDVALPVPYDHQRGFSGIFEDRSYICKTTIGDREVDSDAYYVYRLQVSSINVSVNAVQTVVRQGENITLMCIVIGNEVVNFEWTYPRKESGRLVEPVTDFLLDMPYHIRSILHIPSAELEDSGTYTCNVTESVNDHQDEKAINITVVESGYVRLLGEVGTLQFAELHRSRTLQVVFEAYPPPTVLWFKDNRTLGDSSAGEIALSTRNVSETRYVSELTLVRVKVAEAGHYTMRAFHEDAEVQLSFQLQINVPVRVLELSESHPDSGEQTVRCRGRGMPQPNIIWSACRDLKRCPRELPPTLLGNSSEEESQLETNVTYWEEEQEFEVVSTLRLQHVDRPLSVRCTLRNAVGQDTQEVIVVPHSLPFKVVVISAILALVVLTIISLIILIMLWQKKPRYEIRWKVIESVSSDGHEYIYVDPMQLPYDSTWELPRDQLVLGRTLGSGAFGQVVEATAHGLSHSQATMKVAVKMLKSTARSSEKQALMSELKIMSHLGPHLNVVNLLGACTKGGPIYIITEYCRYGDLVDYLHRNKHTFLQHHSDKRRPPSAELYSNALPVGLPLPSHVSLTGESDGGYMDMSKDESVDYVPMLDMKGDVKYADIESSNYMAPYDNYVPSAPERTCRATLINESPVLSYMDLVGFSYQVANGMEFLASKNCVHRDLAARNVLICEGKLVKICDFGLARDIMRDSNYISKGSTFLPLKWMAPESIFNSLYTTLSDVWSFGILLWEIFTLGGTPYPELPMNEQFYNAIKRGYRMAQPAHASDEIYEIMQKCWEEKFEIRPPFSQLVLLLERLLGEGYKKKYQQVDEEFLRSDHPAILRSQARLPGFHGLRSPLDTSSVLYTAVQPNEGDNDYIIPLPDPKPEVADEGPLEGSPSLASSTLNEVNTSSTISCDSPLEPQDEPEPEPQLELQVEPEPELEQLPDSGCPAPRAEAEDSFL
Chain of FLT3 (P36888 27-993): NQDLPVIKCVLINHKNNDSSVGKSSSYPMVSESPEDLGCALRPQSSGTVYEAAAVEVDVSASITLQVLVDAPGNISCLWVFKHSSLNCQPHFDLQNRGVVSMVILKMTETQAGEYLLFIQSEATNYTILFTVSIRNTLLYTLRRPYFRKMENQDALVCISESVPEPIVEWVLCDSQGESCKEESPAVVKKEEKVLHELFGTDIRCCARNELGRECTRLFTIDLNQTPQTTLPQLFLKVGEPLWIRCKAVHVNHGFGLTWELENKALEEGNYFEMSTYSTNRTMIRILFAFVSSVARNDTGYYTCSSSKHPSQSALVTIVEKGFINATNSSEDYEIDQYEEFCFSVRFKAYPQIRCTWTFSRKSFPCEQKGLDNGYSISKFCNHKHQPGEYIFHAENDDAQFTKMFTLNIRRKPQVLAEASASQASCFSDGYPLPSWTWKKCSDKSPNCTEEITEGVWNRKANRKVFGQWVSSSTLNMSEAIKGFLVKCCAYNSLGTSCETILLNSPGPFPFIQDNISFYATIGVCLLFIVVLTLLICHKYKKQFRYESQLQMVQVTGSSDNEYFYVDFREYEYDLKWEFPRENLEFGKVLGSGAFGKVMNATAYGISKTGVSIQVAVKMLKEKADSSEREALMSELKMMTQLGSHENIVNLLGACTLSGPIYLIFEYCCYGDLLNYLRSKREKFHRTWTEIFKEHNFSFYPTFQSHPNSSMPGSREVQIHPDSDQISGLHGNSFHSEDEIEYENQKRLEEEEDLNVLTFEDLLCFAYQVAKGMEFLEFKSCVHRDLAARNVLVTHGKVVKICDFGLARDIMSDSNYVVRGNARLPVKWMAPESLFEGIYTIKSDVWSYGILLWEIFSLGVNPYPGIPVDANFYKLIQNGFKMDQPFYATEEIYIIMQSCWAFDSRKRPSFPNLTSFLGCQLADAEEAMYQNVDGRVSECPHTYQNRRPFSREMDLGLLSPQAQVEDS
Chain of c-Kit (P10721 26-976): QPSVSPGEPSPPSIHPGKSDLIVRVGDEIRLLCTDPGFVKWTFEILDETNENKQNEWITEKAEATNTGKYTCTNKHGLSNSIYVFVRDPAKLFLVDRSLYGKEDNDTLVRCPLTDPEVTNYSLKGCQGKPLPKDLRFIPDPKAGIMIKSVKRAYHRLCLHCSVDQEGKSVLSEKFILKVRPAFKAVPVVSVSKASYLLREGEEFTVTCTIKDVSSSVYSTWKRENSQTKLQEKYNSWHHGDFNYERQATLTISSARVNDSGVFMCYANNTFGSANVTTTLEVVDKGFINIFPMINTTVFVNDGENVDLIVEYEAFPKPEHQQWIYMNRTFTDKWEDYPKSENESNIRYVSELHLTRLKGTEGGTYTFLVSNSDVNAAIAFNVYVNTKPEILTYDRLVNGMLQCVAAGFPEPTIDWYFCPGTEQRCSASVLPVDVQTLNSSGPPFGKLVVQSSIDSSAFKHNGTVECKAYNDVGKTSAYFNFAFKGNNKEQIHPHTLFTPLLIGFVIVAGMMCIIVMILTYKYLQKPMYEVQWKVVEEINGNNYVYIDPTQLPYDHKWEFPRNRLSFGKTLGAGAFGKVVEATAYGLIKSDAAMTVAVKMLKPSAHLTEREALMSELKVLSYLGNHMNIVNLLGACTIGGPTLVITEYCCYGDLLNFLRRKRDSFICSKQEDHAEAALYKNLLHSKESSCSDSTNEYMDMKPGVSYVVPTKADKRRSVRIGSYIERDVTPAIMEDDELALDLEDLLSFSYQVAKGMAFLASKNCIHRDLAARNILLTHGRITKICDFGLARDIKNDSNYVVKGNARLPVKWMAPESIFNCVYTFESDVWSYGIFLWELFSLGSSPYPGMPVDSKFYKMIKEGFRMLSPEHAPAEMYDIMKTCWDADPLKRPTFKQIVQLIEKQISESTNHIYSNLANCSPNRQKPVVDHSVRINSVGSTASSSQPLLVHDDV

| Structure (SMILES) | IC50 [1] [nM] | IC50 [2] [nM] | IC50 [3, 7] [nM] | IC50 [4] [nM] | IC50 [5] [nM] | IC50 [6] [nM] | IC50 [3] [nM] |
| --- | --- | --- | --- | --- | --- | --- | --- |
| Nc1ncc(C(=O)Nc2cc(C(=O)Nc3ccc(OCC(F)(F)F)cn3)c(F)cc2F)s1 [Example 220, 2-Amino-N-[2,4-difluoro-5-[[5-(2,2,2-trifluoroethoxy)pyridin-2-yl]carbamoyl]phenyl]-1,3-thiazole-5-carboxamide] | > 1000 | > 1000 | < 100 | > 1000 | < 100 | > 1000 | – |
| Cc1ncc(C(=O)Nc2cc(C(=O)Nc3cnc(OCC(F)(F)F)cn3)c(F)cc2C)s1 [Example 89, N-{5-[N-5-(2,2,2-trifluoroethoxy)-2-pyrazinylcarbamoyl]-4-fluoro-2-tolyl}-2-methyl-1,3-thiazole-5-carboxamide] | > 1000 | > 1000 | < 100 | > 1000 | < 100 | > 1000 | – |
| Cc1cc(F)c(C(=O)Nc2ccn(CC(F)F)n2)cc1NC(=O)c1cnc(N)s1 [Example 148, 2-Amino-N-[5-[[1-(2,2-difluoroethyl)pyrazol-3-yl]carbamoyl]-4-fluoro-2-methylphenyl]-1,3-thiazole-5-carboxamide] | 100 to 1000 | > 1000 | < 100 | > 1000 | < 100 | > 1000 | – |
| Cc1cc(F)c(C(=O)NCC(F)(F)F)cc1NC(=O)c1cnc(N)s1 [Example 122, 2-Amino-N-[4-fluoro-2-methyl-5-(2,2,2-trifluoroethylcarbamoyl)phenyl]-1,3-thiazole-5-carboxamide] | > 1000 | > 1000 | < 100 | > 1000 | < 100 | > 1000 | – |
| Cc1ncc(C(=O)Nc2cc(C(=O)Nc3cnc(N4CCC[C@@H]4C)cn3)c(F)cc2C)s1 [Example 83, N-(5-{N-5-[(S)-2-methyl-1-pyrrolidinyl]-2-pyrazinylcarbamoyl}-4-fluoro-2-tolyl)-2-methyl-1,3-thiazole-5-carboxamide] | > 1000 | > 1000 | < 100 | > 1000 | < 100 | > 1000 | – |
| COCC1(c2ccc(NC(=O)c3cc(NC(=O)c4cnc(N)s4)c(C)cc3F)nc2)CC1 [Example 244] | 100 to 1000 | > 1000 | – | 100 to 1000 | < 100 | > 1000 | < 100 |
| Cc1cc(F)c(C(=O)N[C@H]2C[C@@H](F)C2)cc1NC(=O)c1cnc(N)s1 [Example 124, 2-Amino-N-[4-fluoro-5-[(3-fluorocyclobutyl)carbamoyl]-2-methylphenyl]-1,3-thiazole-5-carboxamide] | > 1000 | > 1000 | < 100 | > 1000 | < 100 | > 1000 | – |
| Nc1ncc(C(=O)Nc2cc(C(=O)Nc3ccc(OC(F)(F)F)cn3)c(F)cc2F)s1 [Example 210, 2-Amino-N-[2,4-difluoro-5-[[5-(trifluoromethoxy)pyridin-2-yl]carbamoyl]phenyl]-1,3-thiazole-5-carboxamide] | 100 to 1000 | > 1000 | < 100 | 100 to 1000 | < 100 | > 1000 | – |

Second part, led by results:

| IC50 [1] [nM] | IC50 [2] [nM] | IC50 [3, 7] [nM] | IC50 [4] [nM] | IC50 [5] [nM] | IC50 [6] [nM] | Structure (SMILES) | IC50 [3] [nM] |
| --- | --- | --- | --- | --- | --- | --- | --- |
| 100 to 1000 | > 1000 | < 100 | 100 to 1000 | < 100 | > 1000 | Nc1ncc(C(=O)Nc2cc(C(=O)Nc3ccc(OC4CC4)cn3)c(F)cc2Cl)s1 [Example 209, 2-Amino-N-[2-chloro-5-[(5-cyclopropyloxypyridin-2-yl)carbamoyl]-4-fluorophenyl]-1,3-thiazole-5-carboxamide] | – |
| > 1000 | > 1000 | < 100 | > 1000 | < 100 | > 1000 | Cc1cc(F)c(C(=O)Nc2ccn(C(F)F)n2)cc1NC(=O)c1cnc(N)s1 [Example 181, 2-Amino-N-[5-[[1-(difluoromethyl)pyrazol-3-yl]carbamoyl]-4-fluoro-2-methylphenyl]-1,3-thiazole-5-carboxamide] | – |
| 100 to 1000 | > 1000 | < 100 | > 1000 | < 100 | > 1000 | Cc1cc(F)c(C(=O)Nc2ccn([C@@H]3CCOC3)n2)cc1NC(=O)c1cnc(N)s1 [Example 149, 2-Amino-N-[4-fluoro-2-methyl-5-[[1-[(3R)-oxolan-3-yl]pyrazol-3-yl]carbamoyl]phenyl]-1,3-thiazole-5-carboxamide] | – |
| 100 to 1000 | > 1000 | < 100 | 100 to 1000 | < 100 | > 1000 | COc1ccnc(NC(=O)c2cc(NC(=O)c3cnc(N)s3)c(C)cc2F)c1 [Example 189, 2-Amino-N-[4-fluoro-5-[(4-methoxypyridin-2-yl)carbamoyl]-2-methylphenyl]-1,3-thiazole-5-carboxamide] | – |
| 100 to 1000 | > 1000 | < 100 | > 1000 | < 100 | 100 to 1000 | Cc1cc(F)c(C(=O)Nc2ccn(C3CCC3)n2)cc1NC(=O)c1cnc(N)s1 [Example 155, 2-Amino-N-[5-[(1-cyclobutylpyrazol-3-yl)carbamoyl]-4-fluoro-2-methylphenyl]-1,3-thiazole-5-carboxamide] | – |
| 100 to 1000 | > 1000 | < 100 | > 1000 | < 100 | > 1000 | Cc1cc(F)c(C(=O)Nc2cc3n(n2)CCC3)cc1NC(=O)c1cnc(N)s1 [Example 156, 2-Amino-N-[5-(5,6-dihydro-4H-pyrrolo[1,2-b]pyrazol-2-ylcarbamoyl)-4-fluoro-2-methylphenyl]-1,3-thiazole-5-carboxamide] | – |
| < 100 | > 1000 | < 100 | 100 to 1000 | < 100 | 100 to 1000 | Cc1cc(F)c(C(=O)Nc2ccc(C3CC3)nn2)cc1NC(=O)c1cnc(N)s1 [Example 135, 2-Amino-N-[5-[(6-cyclopropylpyridazin-3-yl)carbamoyl]-4-fluoro-2-methylphenyl]-1,3-thiazole-5-carboxamide] | – |
| > 1000 | > 1000 | < 100 | > 1000 | < 100 | > 1000 | COc1ccc(NC(=O)c2cc(NC(=O)c3cnc(N)s3)c(C)cc2F)nc1 [Example 131, 2-Amino-N-[4-fluoro-5-[(5-methoxypyridin-2-yl)carbamoyl]-2-methylphenyl]-1,3-thiazole-5-carboxamide] | – |
| > 1000 | > 1000 | < 100 | > 1000 | < 100 | > 1000 | Cc1cc(F)c(C(=O)Nc2ccc(O[C@H]3CCOC3)cn2)cc1NC(=O)c1cnc(N)s1 [Example 117, 2-Amino-N-[4-fluoro-2-methyl-5-[[5-[(3S)-oxolan-3-yl]oxypyridin-2-yl]carbamoyl]phenyl]-1,3-thiazole-5-carboxamide] | – |
| > 1000 | > 1000 | < 100 | > 1000 | < 100 | > 1000 | Cc1cc(F)c(C(=O)Nc2ccn([C@H]3CCOC3)n2)cc1NC(=O)c1cnc(N)s1 [Example 191, 2-Amino-N-[4-fluoro-2-methyl-5-[[1-[(3S)-oxolan-3-yl]pyrazol-3-yl]carbamoyl]phenyl]-1,3-thiazole-5-carboxamide] | – |
